# Read-outs that look alike come from different tables or passages of the source.
# What was measured:
# Bacillus cereus = assay: Antimicrobial activity, broth microdilution; assay type: cell-based; settings: read-out: IC50 B. cereus
# Experimental: (§1) The antimicrobial activity assay was performed using the broth microdilution method. Dimethyl sulfoxide (DMSO) was used for the preparation of compound solutions at concentrations of 256 μg/mL, 64 μg/mL, 16 μg/mL, 4 μg/mL, and 1 μg/mL. Three strains of Gram-positive bacteria (Staphylococcus aureus, Bacillus cereus, and Lactobacillus fermentum); three strains of Gram-negative bacteria (Salmonella enterica, Escherichia coli, and Pseudomonas aeruginosa), and fungus Candida albicans (obtained from the American Type Culture Collection (ATCC)) were used for the test. Ampicillin, Cefotaxim, and Nystatin were used as positive controls for the Gram (+) bacterial and Gram (−) bacterial strains and C. albicans, respectively. The activity of the isolated compounds was expressed as an IC50 value (half-maximal inhibitory concentration). The IC50 values were calculated using the program […].
# Lactobacillus fermentum = assay: Antimicrobial activity, broth microdilution; assay type: cell-based; settings: read-out: IC50 L. fermentum
# Experimental: as §1
# Staphylococcus aureus = assay: Antimicrobial activity, broth microdilution; assay type: cell-based; settings: read-out: IC50 S. aureus
# Experimental: as §1
# Pseudomonas aeruginosa = assay: Antimicrobial activity, broth microdilution; assay type: cell-based; settings: for IC50: Pseudomonas aeruginosa, read-out: IC50 P. aeruginosa
# Experimental: as §1
# Escherichia coli = assay: Antimicrobial activity, broth microdilution; assay type: cell-based; settings: for IC50: Escherichia coli, read-out: IC50 E. coli
# Experimental: as §1
# Salmonella enterica = assay: Antimicrobial activity, broth microdilution; assay type: cell-based; settings: Gram (−) strain; for IC50: Salmonella enterica, read-out: IC50 S. enterica
# Experimental: as §1
# Candida albicans = assay: Antimicrobial activity, broth microdilution; assay type: cell-based; settings: Candida albicans, read-out: IC50 C. albicans
# Experimental: as §1
# [1] = test system: A-549 (human lung adenocarcinoma); assay: Cytotoxicity assay (MTT); assay type: cell-based; settings: A549, MTT, 48 h incubation, read-out: IC50 A-549
# Experimental: (§2) The cytotoxic assays were evaluated in triplicate against three cancer cell lines, namely KB (epidermal carcinoma), A-549 (human lung adenocarcinoma), and HepG-2 (human hepatoma) (ATCC), with a modification of the previously published method. The cells were cultured in Dulbecco’s D-MEM medium (Gibco, Life Technologies Corporation, Grand Island, NY, USA), supplemented with 10% fetal calf serum (Sigma-Aldrich, St. Loius, MO, USA), L-glutamine (2 mM) (Sigma-Aldrich, St. Loius, MO, USA), penicillin G (100 UI/mL), and streptomycin (100 μg/mL) (Sigma-Aldrich, St. Loius, MO, USA). The compound solutions were prepared in DMSO, and the cytotoxic assays were conducted in 96-well microtiter plates against the cancer cells (3 × 10^5 cells/mL concentration). After 48 h incubation at 37 °C in an air/CO2 (95:5) atmosphere, with or without isolated compounds, MTT reagent was added to each well (0.5 mg/mL). The cell growth was assessed by measuring the colorimetric of formazan at 570 nm using a microplate reader. […] Ellipticine was used as a positive reference.
# HepG-2 (human hepatoma) = assay: Cytotoxicity assay (MTT); assay type: cell-based; settings: HepG2, MTT, 48 h incubation, read-out: IC50 Hep-G2
# Experimental: as §2
# KB (epidermal carcinoma) = assay: Cytotoxicity assay (MTT); assay type: cell-based; settings: MTT, 48 h incubation; read-out: IC50 KB
# Experimental: as §2
# α-glucosidase = molecular target: T1, α-glucosidase (Saccharomyces cerevisiae, UniProt P53341); assay: biochemical
# T1 construct: purchased Sigma-Aldrich G0660
# Experimental: An assay for the α-glucosidase inhibitory activity was carried out by a modification of the published method. Briefly, solutions of α-glucosidase (Saccharomyces cerevisiae, G0660, Sigma-Aldrich, St. Louis, MO, USA) and p-nitrophenyl α-D-glucopyranoside (Sigma-Aldrich, St. Louis, MO, USA) were prepared in a phosphate buffer (100 mM, pH 6.8, Sigma-Aldrich, St. Louis, MO, USA). […] The compound solution (2 μL) and 40 µL of enzyme solution (0.5 U/mL) in 120 µL phosphate buffer were mixed. After 5 min of preincubation, 20 µL of 10 mM p-nitrophenyl α-D-glucopyranoside prepared in phosphate buffer was added, and the reaction mixture was incubated for 30 min at 37 °C. The reaction was quenched by the addition of 80 µL of 0.2 M Na2CO3. The absorbance of the released p-nitrophenol was measured at 410 nm using a Biotek reader. The % inhibition was calculated using the following equation:Inhibition (%) = [1 − (Asample/Acontrol)] ∗ 100
# The IC50 values of the isolated compounds were calculated using the program Table Curve.
# [2] = Table S1, α-glucosidase, read-out: IC50 (Table S1) (converted)
# [3] = p-nitrophenyl α-D-glucopyranoside, pH 6.8, 37 °C, read-out: IC50 α-Glucosidase Inhibitory Activity
# T1 sequence (P53341 whole entry): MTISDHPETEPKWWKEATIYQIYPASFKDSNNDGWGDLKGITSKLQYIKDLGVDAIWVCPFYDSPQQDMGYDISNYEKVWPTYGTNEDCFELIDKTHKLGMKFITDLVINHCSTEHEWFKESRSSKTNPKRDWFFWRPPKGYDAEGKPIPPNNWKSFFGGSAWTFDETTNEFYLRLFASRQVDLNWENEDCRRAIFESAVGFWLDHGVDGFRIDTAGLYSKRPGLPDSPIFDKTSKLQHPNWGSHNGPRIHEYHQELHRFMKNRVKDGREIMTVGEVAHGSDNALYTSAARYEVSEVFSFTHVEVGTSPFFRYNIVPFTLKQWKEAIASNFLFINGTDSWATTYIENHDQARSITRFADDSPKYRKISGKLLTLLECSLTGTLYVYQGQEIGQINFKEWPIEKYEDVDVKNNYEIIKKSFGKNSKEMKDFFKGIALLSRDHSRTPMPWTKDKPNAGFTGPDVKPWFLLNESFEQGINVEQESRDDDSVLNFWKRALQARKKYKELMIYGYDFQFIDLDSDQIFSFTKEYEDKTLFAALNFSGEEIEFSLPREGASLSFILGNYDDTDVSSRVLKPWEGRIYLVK
IC50 (Bacillus cereus; Gram (+) strain) [µg/mL],IC50 (Staphylococcus aureus; Gram (+) strain) [µg/mL],Structure (SMILES),IC50 (Lactobacillus fermentum; Gram (+) strain) [µg/mL],IC50 P. aeruginosa (Pseudomonas aeruginosa; Gram (−) strain) [µg/mL],IC50 E. coli (Escherichia coli; Gram (−) strain) [µg/mL],IC50 S. enterica (Salmonella enterica) [µg/mL],IC50 (Candida albicans) [µg/mL],IC50 (Bacillus cereus) [µg/mL],IC50 (Pseudomonas aeruginosa) [µg/mL],IC50 (Escherichia coli) [µg/mL],IC50 (Salmonella enterica) [µg/mL],IC50 (Staphylococcus aureus) [µg/mL],IC50 [1] [µg/mL],IC50 (HepG-2 (human hepatoma)) [µg/mL],IC50 (KB (epidermal carcinoma)) [µg/mL],IC50 (α-glucosidase; [2]) [µM],IC50 (α-glucosidase; [3]) [µM],IC50 (Lactobacillus fermentum) [µg/mL]
3.62 ± 0.15,0.02 ± 0.005,"CC1(C)S[C@@H]2[C@H](NC(=O)[C@H](N)c3ccccc3)C(=O)N2[C@H]1C(=O)O [A, Ampicillin, reference compound]",1.03 ± 0.07,–,–,–,–,–,–,–,–,–,–,–,–,–,–,–
–,–,"CO/N=C(\C(=O)N[C@@H]1C(=O)N2C(C(=O)O)=C(COC(C)=O)CS[C@H]12)c1csc(N)n1 [C, Cefotaxim, reference compound]",–,4.34 ± 0.15,0.07 ± 0.02,0.43 ± 0.05,–,–,–,–,–,–,–,–,–,–,–,–
–,–,"C=C1CC[C@@H]2[C@H]([C@H]3[C@H]1CC[C@]3(C)O)C2(C)C [Compound 1, spathulenol]",206 ± 5.23,–,–,–,> 256,> 256,> 256,> 256,> 256,> 256,> 128,> 128,> 128,> 1160,> 1160,–
–,–,"CC1(C)[C@H]2[C@H]3[C@@H](CC[C@]3(C)O)[C@](C)(O)CC[C@H]21 [Compound 2, 1αH,5βH-aromandendrane-4β,10α-diol]",–,–,–,–,> 256,> 256,> 256,> 256,> 256,> 256,> 128,> 128,> 128,> 1070,> 1070,> 256
–,–,"C=C1CC[C@@H](O)[C@]2(C)CC[C@@H](C(C)C)[C@H](O)[C@@H]12 [Compound 3, 1β,6α-dihydroxy-4(15)-eudesmene]",–,–,–,–,> 256,> 256,> 256,> 256,> 256,> 256,> 128,> 128,> 128,> 1070,> 1070,> 256
–,–,"CC1(C)[C@H]2[C@H]3[C@H](CC[C@@]3(C)O)[C@@](C)(O)CC[C@H]21 [Compound 4, 1βH,5βH-aromandendrane-4α,10β-diol]",–,–,–,–,> 256,> 256,> 256,> 256,> 256,> 256,> 128,> 128,89.1 ± 9.67,> 1070,> 1070,> 256
